Source: patent US6573275B1, “Bicyclic amines” (Syngenta Limited, priority 1995, dated 2003)

test system: peach aphid (Myzus persicae); assay: Insecticidal test against peach aphid, infested Chinese cabbage leaves sprayed; format: in vivo; details: peach aphid (Myzus persicae) on Chinese cabbage leaves, sprayed with 500 ppm composition unless otherwise stated, mortality assessed after 3 days
Method: This Example illustrates the insecticidal properties of the compounds of Formula I. The activity of the compounds of Formula I was determined using a variety of pests. The pests were treated with a liquid composition containing 500 parts per million (ppm) by weight of the compound unless otherwise stated. The compositions were made by dissolving the compound in acetone and ethanol (50:50) mixture and diluting the solutions with water containing 0.05% by weight of a wetting agent sold under the trade name “SYNPERONIC” NP8 until the liquid composition contained the required concentration of the compound. “SYNPERONIC” is a Registered Trade Mark.
The test procedure adopted with regard to each pest was basically the same and comprised supporting a number of the pests on a medium which was usually a substrate, a host plant or a foodstuff on which the pests feed, and treating either or both the medium and the pests with the compositions. The mortality of the pests was then assessed at periods usually varying from two to five days after the treatment.
In this test Chinese cabbage leaves were infested with aphids, the infested leaves were sprayed with the test composition, and the mortality assessed after 3 days.

SMILES	Score (grading of mortality)
N#CC1(c2cncc(Cl)c2)CC2CCC(C1)N2c1cccc(C(F)(F)F)n1 (stereo not drawn) [Compound 136]	C (C indicates less than 40% mortality)
N#CC1(c2cncc(Cl)c2)CC2CCC(C1)N2Cc1cccc(OC(F)(F)F)c1 (stereo not drawn) [Compound 235]	A (A indicates 80-100% mortality)
N#CC1(c2cncc(Cl)c2)CC2CCC(C1)N2Cc1cc(C(F)(F)F)ccc1F (stereo not drawn) [Compound 265]	A (A indicates 80-100% mortality)
CC(C)c1ccc(CN2C3CCC2CC(C#N)(c2cncc(Cl)c2)C3)cc1 (stereo not drawn) [Compound 247]	A (A indicates 80-100% mortality)
N#CC1(c2cncc(Cl)c2)CC2CCC(C1)N2CC(F)(F)C(F)(F)C(F)(F)C(F)F (stereo not drawn) [Compound 133]	A (A indicates 80-100% mortality)
CN1C2CCC1CC(C#N)(c1cncc(Cl)n1)C2 (stereo not drawn) [Compound 43, exo3-(6-chloropyrazin-2-yl)-endo-3-cyano-8-methyl-8-azabicyclo[3.2.1]octane]	A (A indicates 80-100% mortality)
CC=CCN1C2CCC1CC(C#N)(c1cccnc1)C2 (stereo not drawn) [Compound 58]	C (C indicates less than 40% mortality)
CC(C)N(C(=O)N1C2CCC1CC(C#N)(c1cncc(Cl)c1)C2)C(C)C (stereo not drawn) [Compound 150, exo-3-(5-chloropyrid-3-yl)-endo-3-cyano-8-(diisopropylcarbamyl)-8-azabicyclo[3.2.1]octane]	A (A indicates 80-100% mortality)
CN1C2CCC1CC(C#N)(c1cncc(I)c1)C2 (stereo not drawn) [Compound 147, exo-3-(5-iodopyrid-3-yl)-endo-3-cyano-8-methyl-8-azabicyclo[3.2.1]octane]	A (A indicates 80-100% mortality)
CN1C2CCC1CC(C#N)(c1cccc(Cl)n1)C2 (stereo not drawn) [Compound 71]	A (A indicates 80-100% mortality)
CC(CO)(c1ccccc1)N1C2CCC1CC(C#N)(c1cncc(Cl)c1)C2 (stereo not drawn) [Compound 176, exo-3-(5-chloropyrid-3-yl)-endo-3-cyano-8-(2-phenyl-3-hydroxyprop-2-yl)-8-azabicyclo[3.2.1]octane]	A (A indicates 80-100% mortality)
N#CC1(c2cncc(Cl)c2)CC2CCC(C1)N2CCc1ccccc1 (stereo not drawn) [Compound 104, exo-3-(5-chloropyrid-3-yl)-endo-3-cyano-8-(2-phenylethyl)-8-azabicyclo[3.2.1]octane]	A (A indicates 80-100% mortality)
CON1C2CCC1CC(C#N)(c1cncc(Cl)c1)C2 (stereo not drawn) [Compound 296, exo-3-(5-chloropyrid-3-yl)-endo-3-cyano-8-methoxy-8-azabicyclo[3.2.1]octane]	A (A indicates 80-100% mortality)
COc1cncc(C2(C#N)CC3CCC(C2)N3C)c1 (stereo not drawn) [Compound 77, exo-3-(5-methoxypyrid-3-yl)-endo-3-cyano-8-methyl-8-azabicyclo[3.2.1]octane]	A (A indicates 80-100% mortality)
N#CC1(c2cc(F)cc(F)c2)CC2CCC(C1)N2CCO (stereo not drawn) [Compound 24]	A (A indicates 80-100% mortality)
CN1C2CCC1CC(C#N)(c1ccncn1)C2 (stereo not drawn) [Compound 194]	A (A indicates 80-100% mortality)
N#CC1(c2cncc(Cl)c2)CC2CCC(C1)N2Cc1ccccc1F (stereo not drawn) [Compound 250]	A (A indicates 80-100% mortality)
N#CC1(c2cncc(Cl)c2)CC2CCC(C1)N2Cc1ccc(F)c(F)c1 (stereo not drawn) [Compound 249]	A (A indicates 80-100% mortality)
N#CC1(c2cncc(Cl)c2)CC2CCC(C1)N2Cc1ccc(F)cc1F (stereo not drawn) [Compound 252]	A (A indicates 80-100% mortality)
N#CC1(c2cncc(Cl)c2)CC2CCC(C1)N2Cc1nnsc1Cl (stereo not drawn) [Compound 158, exo-3-(5-chloropyrid-3-yl)-endo-3-cyano-8-((5-chloro-1,2,3-thiadiazol-4-yl)methyl)-8-azabicyclo[3.2.1]octane]	A (A indicates 80-100% mortality)
N#CC1(c2cncc(Cl)c2)CC2CCC(C1)N2Cc1ccc(Br)cc1 (stereo not drawn) [Compound 243]	A (A indicates 80-100% mortality)
N#CC1(c2cncc(Cl)c2)CC2CCC(C1)N2Cc1ccccc1[N+](=O)[O-] (stereo not drawn) [Compound 272]	A (A indicates 80-100% mortality)
CC(F)(CN1C2CCC1CC(C#N)(c1cncc(Cl)c1)C2)c1ccccc1 (stereo not drawn) [Compound 179, exo-3-(5-chloropyrid-3-yl)-endo-3-cyano-8-(2-fluoro-2-phenylprop-1-yl)-8-azabicyclo[3.2.1]octane]	A (A indicates 80-100% mortality)
N#CC1(c2cncc(Cl)c2)CC2CCC(C1)N2c1cccc(Cl)n1 (stereo not drawn) [Compound 137]	C (C indicates less than 40% mortality)
CC(CO)CN1C2CCC1CC(C#N)(c1cncc(Cl)c1)C2 (stereo not drawn) [Compound 290]	A (A indicates 80-100% mortality)
N#CC1(c2cncc(Cl)c2)CC2CCC(C1)N2C(C(N)=O)c1ccccc1 (stereo not drawn) [Compound 135, exo-3-(5-chloropyrid-3-yl)-endo-3-cyano-8-(a-carbamylbenzyl)-8-azabicyclo[3.2.1]octane]	A (A indicates 80-100% mortality)

SMILES	Score (grading of mortality)
N#CC1(c2cc(F)cc(F)c2)CC2CCC(C1)N2Cc1ccc(Cl)cc1 (stereo not drawn) [Compound 14]	A (A indicates 80-100% mortality)
CN1C2CCC1CC(C#N)(c1c(F)c(F)c(F)c(F)c1F)C2 (stereo not drawn) [Compound 4]	A (A indicates 80-100% mortality)
N#CC1(c2cncc(Cl)c2)CC2CCC(C1)N2Cc1cccc(C(=O)c2ccccc2)c1 (stereo not drawn) [Compound 231]	A (A indicates 80-100% mortality)
N#CC1(c2cc(F)cc(F)c2)CC2CCC(C1)N2c1ccc([N+](=O)[O-])cc1 (stereo not drawn) [Compound 59]	A (A indicates 80-100% mortality)
COc1cncc(C2(C#N)CC3CCC(C2)N3CC(F)(F)F)c1 (stereo not drawn) [Compound 161]	A (A indicates 80-100% mortality)
CS(=O)(=O)N1C2CCC1CC(C#N)(c1cccnc1)C2 (stereo not drawn) [Compound 45]	C (C indicates less than 40% mortality)
CC(C)(C)OC(=O)N1C2CCC1CC(C#N)(c1cncc(Cl)c1)C2 (stereo not drawn) [Compound 294]	A (A indicates 80-100% mortality)
N#CC1(c2cnc(F)c(Cl)c2)CC2CCC(C1)N2CC(F)(F)F (stereo not drawn) [Compound 163]	C (C indicates less than 40% mortality)
N#CC1(c2cncc(Cl)c2)CC2CCC(C1)N2c1ccc(C(=O)O)cc1 (stereo not drawn) [Compound 170]	B (B indicates 40-79% mortality)
N#CC1(c2cc(F)cc(F)c2)CC2CCC(C1)N2c1ccccn1 (stereo not drawn) [Compound 73]	C (C indicates less than 40% mortality)
C=CC(C)(c1ccccc1)N1C2CCC1CC(C#N)(c1cncc(Cl)c1)C2 (stereo not drawn) [Compound 175, exo-3-(5-chloropyrid-3-yl)-endo-3-cyano-8-(2-phenylbut-3-en-2-yl)-8-azabicyclo[3.2.1]octane]	A (A indicates 80-100% mortality)
N#CC1(c2cncc(Cl)c2)CC2CCC(C1)N2C(=O)F (stereo not drawn) [Compound 144, exo-3-(5-chloropyrid-3-yl)-endo-3-cyano-8-(fluorocarbonyl)-8-azabicyclo[3.2.1]octane]	A (A indicates 80-100% mortality)
N#CC1(c2cncc(Cl)c2)CC2CCC(C1)N2Cc1ccccc1Cl (stereo not drawn) [Compound 259]	A (A indicates 80-100% mortality)
N#CC1(c2cncc(Cl)c2)CC2CCC(C1)N2CCCc1ccccc1 (stereo not drawn) [Compound 282]	A (A indicates 80-100% mortality)
CC(c1cccc(Cl)c1)N1C2CCC1CC(C#N)(c1cncc(Cl)c1)C2 (stereo not drawn) [Compound 302]	A (A indicates 80-100% mortality)
COC(=O)CCCN1C2CCC1CC(C#N)(c1cncc(Cl)c1)C2 (stereo not drawn) [Compound 281]	A (A indicates 80-100% mortality)
N#CC1(c2cncc(Cl)c2)CC2CCC(C1)N2c1ccc([N+](=O)[O-])cc1 (stereo not drawn) [Compound 94]	C (C indicates less than 40% mortality)
N#CC1(c2cncc(Cl)c2)CC2CCC(C1)N2CCOc1ccccc1 (stereo not drawn) [Compound 278]	A (A indicates 80-100% mortality)
N#CC1(c2cncc(Cl)c2)CC2CCC(C1)N2c1ccc(C(F)(F)F)cn1 (stereo not drawn) [Compound 126]	C (C indicates less than 40% mortality)
N#CC1(c2cc(F)cc(F)c2)CC2CCC(C1)N2CC(O)c1ccccc1 (stereo not drawn) [Compound 19]	C (C indicates less than 40% mortality)
CN1C2CCC1CC(C#N)(c1cncc(O)c1)C2 (stereo not drawn) [Compound 148, exo-3-(5-hydroxypyrid-3-yl)-endo-3-cyano-8-methyl-8-azabicyclo[3.2.1]octane]	B (B indicates 40-79% mortality)
N#CC1(c2cc(F)cc(F)c2)CC2CCC(C1)N2Cc1ccccn1 (stereo not drawn) [Compound 12]	A (A indicates 80-100% mortality)
CN1C2CCC1CC(C#N)(c1ccc(Cl)nn1)C2 (stereo not drawn) [Compound 41, exo-3-(6-chloropyridazin-3-yl)-endo-3-cyano-8-methyl-8-azabicyclo[3.2.1]octane]	A (A indicates 80-100% mortality)
CN1C2CCC1CC(C#N)(c1cccnc1)C2 (stereo not drawn) [Compound 33, exo-3-(pyrid-3-yl)-endo-3-cyano-8-methyl-8-azabicyclo[3.2.1]octane]	A (A indicates 80-100% mortality)
CN1C2CCC1CC(C#N)(c1cncc(N)c1)C2 (stereo not drawn) [Compound 134, exo-3-(5-aminopyrid-3-yl)-endo-3-cyano-8-methyl-8-azabicyclo[3.2.1]octane]	A (A indicates 80-100% mortality)
